Like-named read-outs stand apart in the source and are kept apart here.
Experiments:
[1] = tested on: T-lymphoblastic leukemia cell line CEM; test: Calcein AM cytotoxicity assay; format: cell-based, human; settings: 72 hours
Excerpt: (§1) Absence of toxic effects against mammalian (especially human) cell lines in a wide concentration range is one of the requirements on compounds intended for use in agriculture and medicine. Because toxic compounds negatively influence metabolic processes in cells, many standard cytotoxicity assays are based on measurement of metabolisation rate of various artificial substrates. Resulting product is then quantified e.g. by means of spectrometry. The assays can be easily modified for use in 96-well plates. For evaluation of cytotoxic effect of compounds of this invention, a microtiter assay based on quantification of metabolisation of Calcein AM was used. The assay is widely used in drug screening programs and in chemosensitivity testing. In live cells, Calcein AM is enzymatically hydrolysed and accumulation of resulting calcein is manifested by green fluorescence.
(§2) Mouse cell lines B16-F10 (melanoma) and NIH-3T3 (fibroblasts) were used as well. The cells were maintained in Nunc/Corning 80 cm^2 plastic tissue culture flasks and cultured in cell culture medium (DMEM with 5 g/l glucose, 2 mM glutamine, 100 U/ml penicillin, 100 μg/ml streptomycin, 10% fetal calf serum and sodium bicarbonate).
(§3) The cell suspensions were prepared and diluted according to the particular cell type and the expected target cell density (2.500-30.000 cells per well based on cell growth characteristics) and pippetted (80 μl) into 96-well plates. Inoculates were allowed a pre-incubation period of 24 hours at 37° C. and 5% CO2 for stabilisation. Tested compound was added in total volume of 20 μl of water at time zero. Usually, test compound was evaluated at six 3-fold dilutions. […] All drug concentrations were tested in triplicates. Incubations of cells with the test compounds lasted for 72 hours at 37° C., in 5% CO2 atmosphere and 100% humidity. At the end of incubation period Calcein AM in PBS was added into final concentration of 1 μg/ml. After another 1 hour of incubation fluorescence (FD) was measured with the Labsystem FIA Reader Fluoroscan Ascent (UK). Growth inhibition (GI) was estimated using the following equitation: GI=(mean FDdrug exposed wells−mean FDblank)/(mean FDcontrol wells−mean FDblank)×100%.

[2] = tested on: breast carcinoma cell line MCF-7; test: Calcein AM cytotoxicity assay; format: cell-based, human
Excerpt: as §1, §2, §3

[3] = tested on: promyelocytic leukemia cell line HL-60; test: Calcein AM cytotoxicity assay; format: cell-based, human; settings: read-out: GI50 HL60
Excerpt: as §1, §2, §3

[4] = target: T1, AHK3 (Arabidopsis thaliana, UniProt Q9C5U1); test: Activation of cytokinin receptors (E. coli KMI001 beta-galactosidase reporter); format: cell-based; settings: 28 h incubation; n.a. means no activation
T1 sequence (Q9C5U1 1-1036): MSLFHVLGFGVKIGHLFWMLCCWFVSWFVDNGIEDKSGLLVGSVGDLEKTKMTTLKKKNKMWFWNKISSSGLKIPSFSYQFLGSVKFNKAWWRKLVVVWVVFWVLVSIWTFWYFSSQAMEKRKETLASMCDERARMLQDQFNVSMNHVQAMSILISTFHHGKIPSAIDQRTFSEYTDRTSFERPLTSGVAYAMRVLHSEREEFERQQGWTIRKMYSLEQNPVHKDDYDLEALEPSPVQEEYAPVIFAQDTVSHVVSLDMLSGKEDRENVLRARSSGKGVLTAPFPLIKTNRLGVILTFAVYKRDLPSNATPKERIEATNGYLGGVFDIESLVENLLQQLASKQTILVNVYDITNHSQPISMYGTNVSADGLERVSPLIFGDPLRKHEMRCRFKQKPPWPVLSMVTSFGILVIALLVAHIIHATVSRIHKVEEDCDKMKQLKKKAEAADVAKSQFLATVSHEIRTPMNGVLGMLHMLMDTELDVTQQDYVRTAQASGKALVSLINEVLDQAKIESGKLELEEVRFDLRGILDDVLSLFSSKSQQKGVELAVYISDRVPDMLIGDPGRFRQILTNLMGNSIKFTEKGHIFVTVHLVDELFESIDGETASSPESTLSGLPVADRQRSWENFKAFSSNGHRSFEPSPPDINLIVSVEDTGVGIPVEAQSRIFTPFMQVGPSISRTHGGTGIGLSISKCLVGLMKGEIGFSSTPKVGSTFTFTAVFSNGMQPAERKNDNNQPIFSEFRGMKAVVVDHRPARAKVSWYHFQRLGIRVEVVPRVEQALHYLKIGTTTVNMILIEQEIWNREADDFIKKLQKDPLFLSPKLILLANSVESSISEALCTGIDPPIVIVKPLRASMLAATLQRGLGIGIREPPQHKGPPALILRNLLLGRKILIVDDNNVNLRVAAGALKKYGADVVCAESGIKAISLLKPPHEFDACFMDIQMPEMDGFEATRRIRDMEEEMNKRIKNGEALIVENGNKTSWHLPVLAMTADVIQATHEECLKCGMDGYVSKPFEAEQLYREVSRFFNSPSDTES
Outline: (§4)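 E. coli KMI001 carrying the receptor plasmid was grown in M9 + 0.1% casamino acids at 25 °C, diluted 1:600 and treated with compound (stock solutions 10^-7–5×10^-5 M). Supernatant β-galactosidase was read by 4-methylumbelliferyl galactoside hydrolysis (1 h, 37 °C, Na2CO3 stop). EC50 came from dose-response curves, triplicate means.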

[5] = target: CRE1/AHK4 (Arabidopsis thaliana, UniProt Q9C5U0); test: as above; format: cell-based; settings: 17 h incubation; n.a. means no activation
Outline: as §4

[6] = tested on: NIH-3T3 (fibroblasts); test: Calcein AM cytotoxicity assay; format: cell-based, Mouse
Excerpt: as §1, §2, §3

[7] = tested on: Rat C6 glioma (ATCC No. CCL107); test: Anti-inflammatory activity: isoproterenol-induced cAMP synthesis (ELISA); format: cell-based; settings: cAMP after 30 min, induced by (−)-isoproterenol; for IC50: Rattus norvegicus, C6 glioma, 0.5 h, read-out: I50
Procedure: Anti-inflammatory activity of several of the substituted 6-anilinopurine derivatives of this invention was determined; kinetin was also evaluated as a control. Rat C6 glioma (ATCC No. CCL107) was cultivated in monolayer in serum-free chemically defined medium containing Ham's F10/minimal essential medium (1:1 v/v), 2 mM L-glutamine, 1% (v/v) minimal essential medium vitamins (100×), 1% (v/v) minimal essential medium nonessential amino acids (100×), 100 U/ml penicillin, […], and 30 nM sodium selenite. Incubation was performed at 37° C. in a 100% humidified atmosphere. The assays were performed in the logarithmic growth phase at a density of 2.5×10^5 cells/cm^2. Intracellular cAMP synthesis was induced by addition of 5 mM (−)-isoproterenol; various amounts of test compounds were added at the same time as the (−)-isoproterenol. After 30 min incubation, the cellular amount of cAMP was determined using ELISA (cAMP-enzyme immunoassay kit from Amersham). The I50 values were determined from the dose-response curve in duplicate.

[8] = tested on: erytroid leukemia cell line K-562; test: Calcein AM cytotoxicity assay; format: cell-based, human; settings: Homo sapiens, K562, 72 hours
Excerpt: as §1
as §2, with “Following human cell lines were used for routine screening of the compounds: T-lymphoblastic leukemia cell line CEM, promyelocytic leukemia cell line HL-60, erytroid leukemia cell line K-562, breast carcinoma cell line MCF-7, osteosarcoma cell line HOS and melanoma cell line G-361. Mouse” for “Mouse”
(§5) The cell suspensions were prepared and diluted according to the particular cell type and the expected target cell density (2.500-30.000 cells per well based on cell growth characteristics) and pippetted (80 μl) into 96-well plates. Inoculates were allowed a pre-incubation period of 24 hours at 37° C. and 5% CO2 for stabilisation. Tested compound was added in total volume of 20 μl of water at time zero. Usually, test compound was evaluated at six 3-fold dilutions. In routine testing, the highest concentration tested was 166.6 μM. All drug concentrations were tested in triplicates. Incubations of cells with the test compounds lasted for 72 hours at 37° C., in 5% CO2 atmosphere and 100% humidity. At the end of incubation period Calcein AM in PBS was added into final concentration of 1 μg/ml. After another 1 hour of incubation fluorescence (FD) was measured with the Labsystem FIA Reader Fluoroscan Ascent (UK). Growth inhibition (GI) was estimated using the following equitation: GI=(mean FDdrug exposed wells−mean FDblank)/(mean FDcontrol wells−mean FDblank)×100%. The GI50 value, the drug concentration causing 50% reduction of Calcein AM conversion, was calculated from the obtained dose response curves.

[9] = tested on: CKX1 overproducing Arabidopsis seedlings; test: CKX1 overproducing Arabidopsis seedlings grown in vitro on MS medium, phenotype reversion; format: in vivo; settings: in vitro on MS medium containing 0.1 μM compound
[10] = tested on: osteosarcoma cell line HOS; test: Calcein AM cytotoxicity assay; format: cell-based, human; settings: Homo sapiens, 72 hours
Excerpt: as §1
as §2, with “Following human cell lines were used for routine screening of the compounds: T-lymphoblastic leukemia cell line CEM, promyelocytic leukemia cell line HL-60, erytroid leukemia cell line K-562, breast carcinoma cell line MCF-7, osteosarcoma cell line HOS and melanoma cell line G-361. Mouse” for “Mouse”
as §5

[11] = tested on: cytokinin-dependent tobacco callus Nicotiana tabacum L. cv. Wisconsin 38; test: Tobacco callus biotest (plant cell division); format: cell-based; settings: at the concentration with highest activity, relative to 10^−5 M kinetin
[12] = tested on: Amaranthus caudatus cotyledon/hypocotyl explants; test: Amaranthus bioassay (betacyanin content); format: cell-based, Amaranthus caudatus var. atropurpurea; settings: at the concentration with highest activity, relative to 10^−5 M kinetin
Outline: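 Etiolated A. caudatus cotyledon/hypocotyl explants (72 h seedlings, roots removed) incubated 48 h at 25 °C in darkness on medium with phosphate buffer pH 6.8, tyrosine and test compound. Betacyanin extracted in acetic acid, quantified as A537−A620.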

[13] = target: T2, recombinant AtCKX2 (Arabidopsis thaliana, UniProt Q9FUJ3); test: Inhibition of cytokinin oxidase/dehydrogenase activity (PMS/MTT microtitre plate assay); format: biochemical; settings: 30 μM iP as substrate, pH 7.4, 37° C.; means of three replicates; read-out: IC50, inhibition of recombinant AtCKX2
T2 sequence (Q9FUJ3 23-501): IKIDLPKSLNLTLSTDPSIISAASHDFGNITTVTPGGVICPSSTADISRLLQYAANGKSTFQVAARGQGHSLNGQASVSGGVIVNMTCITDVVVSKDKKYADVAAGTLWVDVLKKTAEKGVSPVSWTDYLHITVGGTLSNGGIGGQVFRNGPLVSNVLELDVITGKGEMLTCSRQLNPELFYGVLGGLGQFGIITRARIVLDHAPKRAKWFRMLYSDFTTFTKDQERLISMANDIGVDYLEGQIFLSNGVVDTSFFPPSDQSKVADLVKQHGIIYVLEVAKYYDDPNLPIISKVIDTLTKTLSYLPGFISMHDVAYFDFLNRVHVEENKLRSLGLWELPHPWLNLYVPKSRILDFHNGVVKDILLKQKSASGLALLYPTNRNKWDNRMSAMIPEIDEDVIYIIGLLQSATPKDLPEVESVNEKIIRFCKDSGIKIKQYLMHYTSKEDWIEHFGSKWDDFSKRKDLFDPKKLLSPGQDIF
Procedure: IC50 determinations were done using the assay in microtitre plate. Each well contained 100 μL of PMS/MTT [phenazine methosulfate/3-(4,5-dimethylthiazol-2-yl)-2,5-diphenyltetrazolium bromide] reaction mixture (final concentrations: 0.1 M KH2PO4, pH 7.4, 1 mM MTT, 0.2 mM PMS) containing the tested compound (3×10^−7 M-3×10^−4 M) and 30 μM N^6-isopentenyladenine (iP) as a substrate. 100 μL of cell-free growth medium of S. cerevisiae strain 23344c ura^− harboring the plasmid pYES2-AtCKX2 was directly used as a source of AtCKX2. Plates were incubated in the dark for […] at 37° C. and the enzymatic reaction was stopped by 25 μL of 35% acetic acid. The absorbance at 578 nm was measured using spectrophotometer Tecan. Absorbance of the sample without iP was subtracted.
The IC50 value, the compound concentration that inhibits the enzyme activity to 50%, was calculated from the obtained dose response curves. The values shown in Table 9 are means of three replicates and the entire test was repeated at least twice.

Sequence of CRE1/AHK4 (Q9C5U0 whole entry): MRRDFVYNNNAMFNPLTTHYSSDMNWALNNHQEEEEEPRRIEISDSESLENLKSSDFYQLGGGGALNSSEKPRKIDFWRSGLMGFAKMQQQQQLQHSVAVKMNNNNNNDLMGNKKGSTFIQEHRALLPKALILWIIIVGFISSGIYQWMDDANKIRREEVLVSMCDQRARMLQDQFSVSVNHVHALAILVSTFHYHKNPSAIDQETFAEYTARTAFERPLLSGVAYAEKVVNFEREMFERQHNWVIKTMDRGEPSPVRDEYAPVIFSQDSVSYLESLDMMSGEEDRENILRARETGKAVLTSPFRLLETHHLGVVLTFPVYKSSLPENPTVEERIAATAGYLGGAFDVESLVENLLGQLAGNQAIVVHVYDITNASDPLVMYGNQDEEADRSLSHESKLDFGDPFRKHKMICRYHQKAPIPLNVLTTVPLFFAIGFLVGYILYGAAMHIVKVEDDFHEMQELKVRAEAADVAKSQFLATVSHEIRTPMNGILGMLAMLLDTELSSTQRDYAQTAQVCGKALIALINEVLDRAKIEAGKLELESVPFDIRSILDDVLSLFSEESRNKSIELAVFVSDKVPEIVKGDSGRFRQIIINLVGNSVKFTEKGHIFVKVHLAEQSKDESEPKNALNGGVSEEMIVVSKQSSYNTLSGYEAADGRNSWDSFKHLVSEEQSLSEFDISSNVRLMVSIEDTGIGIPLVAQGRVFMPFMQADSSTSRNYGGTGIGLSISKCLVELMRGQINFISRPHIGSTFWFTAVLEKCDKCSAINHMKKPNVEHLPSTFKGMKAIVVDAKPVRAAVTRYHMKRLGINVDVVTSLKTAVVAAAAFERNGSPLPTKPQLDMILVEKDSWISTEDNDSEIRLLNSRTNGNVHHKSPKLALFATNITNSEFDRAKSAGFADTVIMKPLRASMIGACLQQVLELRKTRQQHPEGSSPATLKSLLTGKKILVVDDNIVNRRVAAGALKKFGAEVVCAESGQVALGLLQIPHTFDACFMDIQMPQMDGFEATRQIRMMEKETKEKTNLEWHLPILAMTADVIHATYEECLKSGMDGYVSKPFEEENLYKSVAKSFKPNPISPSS

SMILES: C/C(=C\CNc1ncnc2nc[nH]c12)CO [trans-zeatin, reference compound]
- GI50 [1]: > 167 µM
- GI50 ([2]; 72 hours, read-out: GI50 MCF7): > 167 µM
- GI50 ([3]; 72 hours): > 167 µM
- EC50 [4]: 2.1 µM
- EC50 [5]: 0.9 µM
- GI50 ([6]; 72 hours): > 167 µM

SMILES: COc1cccc(CNc2nc(Cl)nc3nc[nH]c23)c1 [2-chloro-6-(3-methoxybenzylamino)purine]
- IC50 [7]: 7 µM
- Effect (anti-inflammatory activity) [7]: Inhibition

SMILES: Nc1ncnc2nc[nH]c12 [adenine, reference compound]
- GI50 ([1]; Homo sapiens): > 167 µM
- GI50 ([2]; Homo sapiens, MCF7, 72 hours): > 167 µM
- GI50 ([3]; Homo sapiens, HL-60, 72 hours): > 167 µM
- GI50 ([6]; Mus musculus, NIH3T3, 72 hours): > 167 µM
- GI50 [8]: > 167 µM

SMILES: c1ccc(CNc2ncnc3nc[nH]c23)cc1 [benzylamino, 6-benzylaminopurine, reference compound]
- GI50 ([1]; Homo sapiens): > 167 µM
- GI50 ([3]; Homo sapiens, HL-60, 72 hours): > 167 µM
- GI50 ([6]; Mus musculus, NIH3T3, 72 hours): > 167 µM
- reversion of WT phenotype [9]: appeared only when the compound 12 was present
- GI50 [10]: > 167 µM

SMILES: Nc1nc(Nc2ccc(O)cc2)c2nc[nH]c2n1 [Compound 73]
- GI50 ([2]; Homo sapiens, MCF7, 72 hours): > 167 µM
- EC50 [4]: > 50 µM
- EC50 [5]: > 50 µM
- GI50 ([6]; Mus musculus, NIH3T3, 72 hours): > 167 µM
- GI50 [10]: > 167 µM

SMILES: Fc1nc(Nc2ccc(Cl)cc2)c2nc[nH]c2n1 [Compound 43]
- EC50 [4]: 27 µM
- EC50 [5]: 39.8 µM
- Activity (%) [10^−5 mol · l^−1 K = 100%] [11]: 130%
- Activity (%) [10^−5 mol · l^−1 K = 100%] [12]: 102.6%
- IC50 [13]: 27 µM

SMILES: COc1cc(CNc2nc(Cl)nc3nc[nH]c23)cc(OC)c1 [2-chloro-6-(3,5-dimethoxybenzylamino)purine]
- IC50 [7]: 11 µM
- Effect (anti-inflammatory activity) [7]: Inhibition

SMILES: Oc1ccccc1Nc1nc(Cl)nc2nc[nH]c12 [Compound 8, 2-chloro-6-(2-hydroxyanilino)purine]
- EC50 [4]: 31.7 µM
- IC50 [7]: 25 µM
- Effect (anti-inflammatory activity) [7]: Inhibition

SMILES: Fc1cccc(Nc2nc(F)nc3[nH]cnc23)c1 [Compound 45]
- EC50 [4]: 42.1 µM
- EC50 [5]: > 50 µM
- Activity (%) [10^−5 mol · l^−1 K = 100%] [11]: 127.9%
- Activity (%) [10^−5 mol · l^−1 K = 100%] [12]: 105.1%
- IC50 [13]: 22.1 µM

From patent US8222260B2, “Substituted 6-anilinopurine derivatives as inhibitors of cytokinin oxidase/dehydrogenase and preparations containing these derivatives” (Univerzita Palackego V Olomouci, priority 2007, dated 2012)
